Tests used:
[1] = molecular target: T1, beta-catenin-B-cell lymphoma 9 protein complex (Homo sapiens, UniProt P35222); assay: Inhibition of N-terminal His6-tagged full-length recombinant beta-catenin (1 to 781 residues) (unknown origin) expressed in Escherichia coli BL21 DE3/N-terminal FAM tagged BCL9 HD2(350 to 375 residues) (unknown origin) protein-protein interaction assessed as inhibition constant incubated for 3 hrs by competitive fluorescence polarization assay
T1 sequence (P35222 whole entry): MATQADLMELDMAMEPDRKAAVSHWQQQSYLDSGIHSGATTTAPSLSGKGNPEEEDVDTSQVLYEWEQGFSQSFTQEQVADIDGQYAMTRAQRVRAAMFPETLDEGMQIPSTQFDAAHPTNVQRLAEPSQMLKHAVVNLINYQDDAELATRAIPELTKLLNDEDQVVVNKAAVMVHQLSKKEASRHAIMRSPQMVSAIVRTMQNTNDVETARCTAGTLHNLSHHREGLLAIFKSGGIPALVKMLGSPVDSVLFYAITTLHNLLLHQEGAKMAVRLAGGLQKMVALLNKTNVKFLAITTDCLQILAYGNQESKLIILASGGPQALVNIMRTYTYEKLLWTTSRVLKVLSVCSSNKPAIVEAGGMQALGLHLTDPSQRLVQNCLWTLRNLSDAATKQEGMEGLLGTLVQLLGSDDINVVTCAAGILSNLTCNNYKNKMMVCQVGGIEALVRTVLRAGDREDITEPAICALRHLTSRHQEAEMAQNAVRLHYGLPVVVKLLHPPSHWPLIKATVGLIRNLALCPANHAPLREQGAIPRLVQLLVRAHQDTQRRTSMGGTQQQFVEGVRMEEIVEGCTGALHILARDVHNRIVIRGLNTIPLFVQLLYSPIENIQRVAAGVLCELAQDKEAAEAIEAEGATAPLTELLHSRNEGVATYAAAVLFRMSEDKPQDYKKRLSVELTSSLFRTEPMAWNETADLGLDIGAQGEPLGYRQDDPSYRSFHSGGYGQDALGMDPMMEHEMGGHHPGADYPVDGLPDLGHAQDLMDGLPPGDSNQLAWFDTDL
T1 sequence (O00512 whole entry): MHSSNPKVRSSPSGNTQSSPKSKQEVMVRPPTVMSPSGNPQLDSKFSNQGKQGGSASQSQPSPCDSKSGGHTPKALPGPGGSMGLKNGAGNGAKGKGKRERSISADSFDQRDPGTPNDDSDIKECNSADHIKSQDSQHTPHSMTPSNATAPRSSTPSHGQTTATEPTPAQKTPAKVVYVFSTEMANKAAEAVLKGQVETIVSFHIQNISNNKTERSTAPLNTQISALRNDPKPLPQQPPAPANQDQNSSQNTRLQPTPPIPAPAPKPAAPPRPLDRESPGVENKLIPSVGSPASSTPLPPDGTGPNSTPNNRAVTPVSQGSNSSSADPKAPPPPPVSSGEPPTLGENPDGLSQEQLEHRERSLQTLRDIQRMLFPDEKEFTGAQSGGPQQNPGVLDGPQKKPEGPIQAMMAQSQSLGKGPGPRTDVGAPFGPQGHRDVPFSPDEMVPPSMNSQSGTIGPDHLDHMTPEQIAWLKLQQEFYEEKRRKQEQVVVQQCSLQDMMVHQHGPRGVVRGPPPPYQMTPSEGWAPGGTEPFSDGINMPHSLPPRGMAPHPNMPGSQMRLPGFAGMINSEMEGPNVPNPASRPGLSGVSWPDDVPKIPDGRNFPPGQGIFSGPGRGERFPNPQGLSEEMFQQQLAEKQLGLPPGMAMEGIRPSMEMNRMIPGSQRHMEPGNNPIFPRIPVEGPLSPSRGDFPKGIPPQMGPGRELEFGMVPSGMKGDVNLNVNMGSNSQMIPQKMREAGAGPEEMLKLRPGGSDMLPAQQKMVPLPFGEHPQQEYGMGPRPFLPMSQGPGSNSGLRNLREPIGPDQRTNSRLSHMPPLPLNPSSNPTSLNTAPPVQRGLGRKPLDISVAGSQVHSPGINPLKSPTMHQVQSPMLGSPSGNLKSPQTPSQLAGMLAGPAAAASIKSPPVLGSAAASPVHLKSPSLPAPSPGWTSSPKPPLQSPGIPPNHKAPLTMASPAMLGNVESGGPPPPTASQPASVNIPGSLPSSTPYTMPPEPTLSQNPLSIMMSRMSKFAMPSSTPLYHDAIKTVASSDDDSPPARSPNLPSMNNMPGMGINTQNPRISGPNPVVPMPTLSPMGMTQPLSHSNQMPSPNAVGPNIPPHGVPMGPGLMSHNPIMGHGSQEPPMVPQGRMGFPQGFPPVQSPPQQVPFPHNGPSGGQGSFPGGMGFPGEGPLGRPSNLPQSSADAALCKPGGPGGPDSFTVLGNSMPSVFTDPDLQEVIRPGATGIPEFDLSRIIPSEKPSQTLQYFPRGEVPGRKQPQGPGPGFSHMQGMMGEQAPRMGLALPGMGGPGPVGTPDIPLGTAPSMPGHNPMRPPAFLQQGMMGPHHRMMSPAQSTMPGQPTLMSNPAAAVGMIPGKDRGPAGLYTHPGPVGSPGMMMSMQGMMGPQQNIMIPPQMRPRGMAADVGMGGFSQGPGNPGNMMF

[2] = molecular target: T1, beta-catenin-B-cell lymphoma 9 protein complex; assay: Inhibition of beta-catenin/BCL9 protein-protein interaction in Wnt-dependent human HCT-116 cells assessed as reduction in Axin2 expression level by qRT-PCR assay; type: cell-based
[3] = Microsomal stability in mouse liver microsomes assessed as half life at […] and measured upto 60 mins by LC-MS/MS analysis; type: ADME, Microsome
[4] = Microsomal stability in mouse liver microsomes assessed as intrinsic clearance at […] and measured upto 60 mins by LC-MS/MS analysis; type: ADME, Microsome; settings: read-out: CLH
[5] = Microsomal stability in human liver microsomes assessed as half life at […] and measured upto 60 mins by LC-MS/MS analysis; type: ADME, Microsome
[6] = Microsomal stability in human liver microsomes assessed as intrinsic clearance at […] and measured upto 60 mins by LC-MS/MS analysis; type: ADME, Microsome; settings: read-out: CLH

Row | SMILES | IC50 [1] [µM] | IC50 [2] [µM] | also measured
1 | CC(C)c1ccc(-c2cccc(C(=O)N3CCCC(c4cccc(OC(C)(C)C(=O)O)c4)C3)c2)cc1 (configuration not stated) | > 10 | – | –
2 | CC(C)(Oc1cccc(C2CCCN(C(=O)OCc3ccc4ncccc4c3)C2)c1)C(=O)O (configuration not stated) | > 10 | – | –
3 | CC(C)c1ccc(-c2cccc(S(=O)(=O)N3CCCC(c4cccc(OC(C)(C)C(=O)O)c4)C3)c2)cc1 (configuration not stated) | 1.58 | 2.26 | –
4 | CC(C)(Oc1cccc(C2CCCN(S(=O)(=O)c3cccc(-c4ccc(F)c(F)c4)c3)C2)c1)C(=O)O (configuration not stated) | > 10 | – | –
5 | CC(C)c1ccc(-c2cccc(S(=O)(=O)N3CCCC(c4cccc(OC(C)(C)C(=O)NS(=O)(=O)c5cccc(C(F)(F)F)c5)c4)C3)c2)cc1 (configuration not stated) | 2.47 | 1.33 | –
6 | CC(C)c1ccc(-c2cccc(S(=O)(=O)N3CCCC(c4cccc(OC(C)(C)C(=O)NS(=O)(=O)c5cccc(C#N)c5)c4)C3)c2)cc1 (configuration not stated) | 1.27 | 1.13 | –
7 | CC(C)(Oc1cccc(C2CCCN(C(=O)OCc3ccc4ccccc4c3)C2)c1)C(=O)O (configuration not stated) | > 10 | – | –
8 | CC(C)(Oc1cccc(C2CCCN(C(=O)OCc3ccc(F)cc3F)C2)c1)C(=O)O (configuration not stated) | 5.19 | – | –
9 | CC(C)(Oc1cccc(C2CCCN(C(=O)OCc3ccc(F)c(F)c3)C2)c1)C(=O)O (configuration not stated) | 4.32 | – | –
10 | Cc1ccc(COC(=O)N2CCCC(c3cccc(OC(C)(C)C(=O)O)c3)C2)cc1 (configuration not stated) | 6.7 | – | –
11 | CC(C)(Oc1cccc(C2CCCN(S(=O)(=O)c3cccc(C4CCCCC4)c3)C2)c1)C(=O)O (configuration not stated) | > 10 | – | –
12 | CC(C)c1ccc(/C=C/C(=O)N2CCCC(c3cccc(OC(C)(C)C(=O)O)c3)C2)cc1 (configuration not stated) | 5.39 | – | –
13 | Cc1ccc(-c2cccc(S(=O)(=O)N3CCCC(c4cccc(OC(C)(C)C(=O)O)c4)C3)c2)cc1C (configuration not stated) | 4.63 | – | –
14 | CC(C)c1ccc(-c2cccc(S(=O)(=O)N3CCCC(c4cccc(OC(C)(C)C(=O)NCc5ccccc5)c4)C3)c2)cc1 (configuration not stated) | 3.76 | 10 | –
15 | CC(C)c1ccc(-c2cccc(S(=O)(=O)N3CCCC(c4cccc(OC(C)(C)C(=O)NS(=O)(=O)c5cccs5)c4)C3)c2)cc1 (configuration not stated) | – | – | half-life [3]: 5.75 min; microsomal CLint [4]: 241 µL/min/mg; half-life [5]: 6.17 min; microsomal CLint [6]: 225 µL/min/mg
16 | CC(C)c1ccc(-c2cccc(S(=O)(=O)N3CCCC(c4cccc(OC(C)(C)C(=O)NS(=O)(=O)c5ccc(C#N)cc5)c4)C3)c2)cc1 (configuration not stated) | 1.86 | 1.49 | –
17 | CC(C)c1ccc(-c2cccc(S(=O)(=O)N3CCCC(c4cccc(OC(C)(C)C(=O)NS(=O)(=O)c5ccccc5)c4)C3)c2)cc1 (configuration not stated) | 1.18 | 1.1 | half-life [3]: 19.8 min; microsomal CLint [4]: 70 µL/min/mg; half-life [5]: 8.67 min; microsomal CLint [6]: 160 µL/min/mg
18 | COc1ccc(COC(=O)N2CCCC(c3cccc(OC(C)(C)C(=O)O)c3)C2)cc1OC (configuration not stated) | 6.8 | – | –
19 | CC(C)(Oc1cccc(C2CCCN(S(=O)(=O)c3cccc(-c4ccc(C(C)(C)C)cc4)c3)C2)c1)C(=O)O (configuration not stated) | 3.14 | 1.31 | –

Row | SMILES | IC50 [1] [µM] | IC50 [2] [µM] | also measured
20 | CC(C)c1ccc(-c2cccc(S(=O)(=O)N3CCC[C@H](c4cccc(OC(C)(C)C(=O)NS(=O)(=O)c5ccc(C(F)(F)F)cc5)c4)C3)c2)cc1 | – | – | half-life [3]: 37.7 min; microsomal CLint [4]: 36.8 µL/min/mg; half-life [5]: 21.8 min; microsomal CLint [6]: 63.6 µL/min/mg
21 | COC(=O)C(C)(C)Oc1cccc(C2CCCN(C(=O)OCc3ccc(C(C)C)cc3)C2)c1 (configuration not stated) | 5.21 | – | –
22 | COc1ccc(COC(=O)N2CCCC(c3cccc(OC(C)(C)C(=O)O)c3)C2)cc1 (configuration not stated) | 5.27 | – | –
23 | CC(C)(Oc1cccc(C2CCCN(C(=O)OCC3CCCCC3)C2)c1)C(=O)O (configuration not stated) | 3.9 | > 10 | –
24 | CC(C)(Oc1cccc(C2CCCN(S(=O)(=O)c3cccc(-c4ccccc4)c3)C2)c1)C(=O)O (configuration not stated) | 8.3 | – | –
25 | CC(=O)Nc1ccc(S(=O)(=O)NC(=O)C(C)(C)Oc2cccc(C3CCCN(S(=O)(=O)c4cccc(-c5ccc(C(C)C)cc5)c4)C3)c2)cc1 (configuration not stated) | 0.89 | 2.93 | –
26 | CC(C)(Oc1cccc(C2CCCN(S(=O)(=O)c3cccc(-c4ccsc4)c3)C2)c1)C(=O)O (configuration not stated) | 4 | – | –
27 | CC(C)(Oc1cccc(C2CCCN(S(=O)(=O)c3cccc(-c4ccc5ccsc5c4)c3)C2)c1)C(=O)O (configuration not stated) | 3.27 | 3.58 | –
28 | CC(C)c1cccc(-c2cccc(S(=O)(=O)N3CCCC(c4cccc(OC(C)(C)C(=O)O)c4)C3)c2)c1 (configuration not stated) | 4.27 | – | –
29 | CC(C)(Oc1cccc(C2CCCN(S(=O)(=O)c3cccc(-c4cccs4)c3)C2)c1)C(=O)O (configuration not stated) | > 10 | – | –
30 | CC(C)c1ccc(-c2cccc(S(=O)(=O)N3CCC[C@@H](c4cccc(OC(C)(C)C(=O)NS(=O)(=O)c5ccc(C(F)(F)F)cc5)c4)C3)c2)cc1 | – | – | half-life [3]: 14.8 min; microsomal CLint [4]: 93.4 µL/min/mg; half-life [5]: 69.3 min; microsomal CLint [6]: 20 µL/min/mg
31 | CC(C)c1ccc(-c2cccc(S(=O)(=O)N3CCCC(c4cccc(OC(C)(C)C(=O)NS(=O)(=O)c5ccc(OC(F)(F)F)cc5)c4)C3)c2)cc1 (configuration not stated) | 1 | 1.19 | –
32 | COc1ccc(S(=O)(=O)NC(=O)C(C)(C)Oc2cccc(C3CCCN(S(=O)(=O)c4cccc(-c5ccc(C(C)C)cc5)c4)C3)c2)cc1 (configuration not stated) | 4.47 | – | –
33 | CC(C)c1ccc(-c2cccc(S(=O)(=O)N3CCCC(c4cccc(OC(C)(C)C(=O)NS(=O)(=O)c5ccc(C(F)(F)F)cc5Cl)c4)C3)c2)cc1 (configuration not stated) | 1.18 | 1.36 | –
34 | CC(C)(Oc1cccc(C2CCCN(C(=O)OCc3ccc(C(C)(C)C)cc3)C2)c1)C(=O)O (configuration not stated) | > 10 | – | –
35 | CC(C)c1ccc(COC(=O)N2CCC(c3cccc(OC(C)(C)C(=O)O)c3)CC2)cc1 | 4.86 | – | –
36 | CC(C)c1ccc(CNC(=O)N2CCCC(c3cccc(OC(C)(C)C(=O)O)c3)C2)cc1 (configuration not stated) | 8.62 | – | –
37 | Cc1ccc(COC(=O)N2CCCC(c3cccc(OC(C)(C)C(=O)O)c3)C2)cc1C (configuration not stated) | 4.2 | – | –

Source: ChEMBL document CHEMBL5316313, “Discovery of Novel 3-Phenylpiperidine Derivatives Targeting the β-Catenin/B-Cell Lymphoma 9 Interaction as a Single Agent and in Combination with the Anti-PD-1 Antibody for the Treatment of Colorectal Cancer” (J Med Chem, 2023)
